Experiment: Bulk and tapped density, compressibility index (USP <1174> Powder Flow) of indaziflam crystal samples
Format: physicochemical
Details: for Tap density: cylinder manually tapped (dropped) 50 times, ~1 second between taps; for Bulk Density: sample poured into tared cylinder to 250 ml mark and weighed; for flowability: judged from compressibility index as explained in US Pharmacopoeia method <1174> Powder Flow
Protocol: For purposes of sufficiency of disclosure, the “compressibility index” means in the present invention the compressibility index measured according to US Pharmacopoeia method <1174> Powder Flow, revision from 20 Jan. 2023.
Bulk and tapped density measurements are obtained by placing a sample onto a glazed paper. Then, the sample is poured into the tared cylinder until 250 ml mark is reached. The amount of sample is weighed. Rubber bung is fitted into the cylinder. Cylinder is placed in the dropping box and manually tapped (dropped) 50 times with ˜1 second time difference between taps. Compressibility index is calculated from the bulk density and the tapped density as explained in US Pharmacopoeia method <1174> Powder Flow, revision from 20 Jan. 2023.

Structure (SMILES) | Tap density | Bulk Density | flowability
Cc1ccc2c(c1)[C@H](Nc1nc(N)nc([C@@H](C)F)n1)[C@@H](C)C2 [Example 1, N-[(1R,2S)-2,6-dimethyl-2,3-dihydro-1H-inden-yl]-6-[(1R)-1-fluoroethyl]-1,3-5-triazine-2,4-diamine] | 0.65 gr/ml | 0.56 gr/ml | 
Cc1ccc2c(c1)[C@H](Nc1nc(N)nc([C@@H](C)F)n1)[C@@H](C)C2 [Comparative Example 3, N-[(1R,2S)-2,6-dimethyl-2,3-dihydro-1H-inden-yl]-6-[(1R)-1-fluoroethyl]-1,3-5-triazine-2,4-diamine, reference compound] | 0.59 gr/ml | 0.48 gr/ml | not good
Cc1ccc2c(c1)[C@H](Nc1nc(N)nc([C@@H](C)F)n1)[C@@H](C)C2 [Example 2, N-[(1R,2S)-2,6-dimethyl-2,3-dihydro-1H-inden-yl]-6-[(1R)-1-fluoroethyl]-1,3-5-triazine-2,4-diamine] | 0.52 gr/ml | 0.47 gr/ml | good flowability

From patent US20250382272A1, “CRYSTALLINE FORM OF INDAZIFLAM, METHODS FOR ITS PREPARATION AND USE THEREOF” (ADAMA AGAN LTD., priority 2022, published 2025)
